The record followed here is PubChem BioAssay AID206 (DTP/NCI, 2004).

Each structure is given as a SMILES string. Records with an inconclusive call do not appear.

This experiment concerns nude mice, HT29 intrarenal xenograft, tumor weight T/C. Description: NCI In Vivo Anticancer Drug Screen. Data for tumor model HT29;CX-1 Human Adenocarcinoma (MER+) (intrarenal inoculation) in NU/NU Swiss (nude) mice. The note with it: endpoint: mean tumor weight change, higher = larger tumour. How it is done:
The antitumor activity of compounds was measured in mice bearing transplantable tumors. Survival or tumor size were measured and the results are expressed as the measurement made in the treated group (T) divided by the measurement made in the vehicle treated control group (C). The tumor model used in this assay is HT29;CX-1 Human Adenocarcinoma (MER+) (intrarenal inoculation) in NU/NU Swiss (nude) mice

Setting [1] is: dose: 100.0 mg/kg/injection, schedule: Q04DX004 (sc), vehicle: saline with Tween-80.
Where [2] appears, read: dose: 200.0 mg/kg/injection, schedule: Q04DX004 (sc), vehicle: saline with Tween-80.
Setting [3] is: dose: 800.0 mg/kg/injection, schedule: Q04DX004 (sc), vehicle: saline with Tween-80.
Setting [4] is: dose: 150.0 mg/kg/injection, schedule: Q04DX004 (sc), vehicle: saline with Tween-80.
Setting [5] is: dose: 300.0 mg/kg/injection, schedule: Q04DX004 (sc), vehicle: saline with Tween-80.
The mark [6] stands for this setting: dose: 600.0 mg/kg/injection, schedule: Q04DX004 (sc), vehicle: saline with Tween-80.
Setting [7] is: dose: 1200.0 mg/kg/injection, schedule: Q04DX004 (sc), vehicle: saline with Tween-80.
[8] abbreviates: dose: 75.0 mg/kg/injection, schedule: Q04DX004 (sc), vehicle: saline with Tween-80.
[9] abbreviates: dose: 150.0 mg/kg/injection, schedule: Q04DX004 (sc), vehicle: Klucel (hydroxypropylcellulose) (HPC).
[10] abbreviates: dose: 300.0 mg/kg/injection, schedule: Q04DX004 (sc), vehicle: Klucel (hydroxypropylcellulose) (HPC).
[11] abbreviates: dose: 600.0 mg/kg/injection, schedule: Q04DX004 (sc), vehicle: Klucel (hydroxypropylcellulose) (HPC).
Where [12] appears, read: dose: 1200.0 mg/kg/injection, schedule: Q04DX004 (sc), vehicle: Klucel (hydroxypropylcellulose) (HPC).

`COCCCNC1=C(C#N)C(=O)NC(c2cccc([N+](=O)[O-])c2)S1` (stereo unspecified): the T/C was 91 % of control under setting [1], 165 % of control under setting [2] and 164 % of control under setting [3].

For `CC(=O)OCC1(C)NC(=O)c2ccccc2O1` (stereo unspecified), the T/C was 78 % of control under setting [4], 79 % of control under setting [5], 100 % of control under setting [6] and 52 % of control under setting [7].

Consider `Cc1cc2c(C(C)C)c(O)c(O)c(C=O)c2c(O)c1-c1c(C)cc2c(C(C)C)c(O)c(O)c(C=O)c2c1O`, for which the T/C by setting is: (dose: 37.5 mg/kg/injection, schedule: Q04DX004 (sc), vehicle: saline with Tween-80) 100 % of control; under setting [8], 71 % of control; under setting [4], 64 % of control; under setting [5], 46 % of control.

As for `Clc1ccc(C(c2ccccc2Cl)C(Cl)Cl)cc1` (stereo unspecified), the T/C runs as follows: (dose: 1200.0 mg/kg/injection, schedule: Q04DX004 (sc), vehicle: saline) 99 % of control; (dose: 2400.0 mg/kg/injection, schedule: Q04DX004 (sc), vehicle: saline) 64 % of control; (dose: 4800.0 mg/kg/injection, schedule: Q04DX004 (sc), vehicle: saline) 77 % of control; (dose: 9600.0 mg/kg/injection, schedule: Q04DX004 (sc), vehicle: saline) 67 % of control.

On to `CO[C@@]12[C@H](COC(N)=O)C3=C(C(=O)C(C)=C(N)C3=O)N1C[C@@H]1N[C@@H]12`, for which the T/C (dose: 0.63 mg/kg/injection, schedule: Q04DX004 (sc), vehicle: saline) is 71 % of control; the T/C (dose: 1.5 mg/kg/injection, schedule: Q04DX004 (sc), vehicle: saline) is 10 % of control; the T/C (dose: 2.0 mg/kg/injection, schedule: Q04DX004 (ip), vehicle: saline) is 29 % of control; the T/C (dose: 3.0 mg/kg/injection, schedule: Q04DX003 (sc), vehicle: saline) was 13 % of control; the T/C (dose: 3.0 mg/kg/injection, schedule: Q04DX004 (ip), vehicle: saline) is 8 % of control; the T/C (dose: 3.0 mg/kg/injection, schedule: Q04DX004 (sc), vehicle: saline) was -59 % of control. Besides, the T/C was -82 % of control (dose: 4.5 mg/kg/injection, schedule: Q04DX004 (ip), vehicle: saline) and -37 % of control (dose: 6.0 mg/kg/injection, schedule: Q04DX003 (sc), vehicle: saline).

For `COc1cccc2c1C(=O)c1c(O)c3c(c(O)c1C2=O)CC(O)(/C(C)=N/NC(=O)CCCCC(=O)N/N=C(\C)C1(O)Cc2c(O)c4c(c(O)c2C(OC2CC(N)C(O)C(C)O2)C1)C(=O)c1c(OC)cccc1C4=O)CC3OC1CC(N)C(O)C(C)O1` (stereo unspecified), the T/C by setting is: (dose: 12.5 mg/kg/injection, schedule: Q04DX004 (sc), vehicle: water) 66 % of control; (dose: 25.0 mg/kg/injection, schedule: Q04DX004 (sc), vehicle: water) 98 % of control; (dose: 50.0 mg/kg/injection, schedule: Q04DX004 (sc), vehicle: water) 104 % of control; (dose: 100.0 mg/kg/injection, schedule: Q04DX004 (sc), vehicle: water) 152 % of control.

As for `Brc1c(NC2=NCCN2)ccc2nccnc12`, the T/C was 113 % of control (dose: 12.5 mg/kg/injection, schedule: Q04DX004 (sc), vehicle: saline); 92 % of control (dose: 25.0 mg/kg/injection, schedule: Q04DX004 (sc), vehicle: saline); 52 % of control (dose: 50.0 mg/kg/injection, schedule: Q04DX004 (sc), vehicle: saline); 93 % of control (dose: 100.0 mg/kg/injection, schedule: Q04DX004 (sc), vehicle: saline); 91 % of control (dose: 200.0 mg/kg/injection, schedule: Q04DX004 (sc), vehicle: saline); 79 % of control (dose: 400.0 mg/kg/injection, schedule: Q04DX004 (sc), vehicle: saline).

`C=C(OP(=O)(OC)OC)Sc1ccccc1C`: the T/C is 84 % of control (dose: 100.0 micrograms/kg/injection, schedule: Q04DX004 (sc), vehicle: Klucel (hydroxypropylcellulose) (HPC)); 95 % of control (dose: 400.0 micrograms/kg/injection, schedule: Q04DX004 (sc), vehicle: Klucel (hydroxypropylcellulose) (HPC)); 118 % of control (dose: 800.0 micrograms/kg/injection, schedule: Q04DX004 (sc), vehicle: Klucel (hydroxypropylcellulose) (HPC)).

`CC[C@@]1(O)C[C@H](OC2CC(N(C)C)C(OC3CC(O)C(OC4CCC(=O)C(C)O4)C(C)O3)C(C)O2)c2c(cc3c(c2O)C(=O)c2c(O)cccc2C3=O)[C@H]1C(=O)OC` (stereo partly specified): the T/C reads like this: (dose: 0.5 mg/kg/injection, schedule: Q01DX010 (ip), vehicle: water) 35 % of control; (dose: 2.0 mg/kg/injection, schedule: Q04DX004 (ip), vehicle: water) 114 % of control; (dose: 4.0 mg/kg/injection, schedule: Q04DX004 (ip), vehicle: water) 61 % of control; (dose: 4.0 mg/kg/injection, schedule: Q04DX004 (sc), vehicle: water) 25 % of control; (dose: 8.0 mg/kg/injection, schedule: Q04DX004 (ip), vehicle: water) 37 % of control; (dose: 8.0 mg/kg/injection, schedule: Q04DX004 (sc), vehicle: water) 4 % of control.

On to `C[C@H](N)C(=O)N[C@@H]1[C@H]2C(=C(O)C[C@@H](O)[C@@H]2O)C(=O)O[C@]1(C)C(Cl)Cl`, for which the T/C (dose: 1.5 mg/kg/injection, schedule: Q04DX004 (sc), vehicle: Klucel (hydroxypropylcellulose) (HPC)) is 33 % of control.

On to `CC(=O)CC(C)=O.CC(=O)CC(C)=O.O=N[O-].O=N[O-].[Co]`, for which the T/C is 52 % of control under setting [8], 92 % of control under setting [4] and 48 % of control under setting [5].

Consider `Cc1ccc(C(=O)[O][Hg][CH2]C2COC([CH2][Hg][O]C(=O)c3ccc(C)cc3)CO2)cc1` (stereo unspecified), for which the T/C is 87 % of control under setting [9], 51 % of control under setting [10], 47 % of control under setting [11] and 42 % of control under setting [12].

On to `CC1=C(/C=C/C(C)=C/C=C/C(C)=C/C(=O)O)C(C)(C)CCC1`, for which the T/C by setting is: (dose: 12.5 mg/kg/injection, schedule: Q01DX010 (sc), vehicle: saline with Tween-80) 153 % of control; (dose: 25.0 mg/kg/injection, schedule: Q01DX010 (sc), vehicle: saline with Tween-80) 176 % of control; (dose: 50.0 mg/kg/injection, schedule: Q01DX010 (sc), vehicle: saline with Tween-80) 123 % of control.

`CC12CC(C(=O)O)C3(O)CC(C)(C1)CC(C)(C2)C3` (stereo unspecified) (tested in a mixture with another compound): the T/C under setting [9] is 48 % of control, the T/C under setting [10] was 54 % of control, the T/C under setting [11] is 66 % of control and the T/C under setting [12] is 110 % of control.

On to `COC1=C(OC)C(=O)C(SC/C=C(\C)CCCC(C)CCCC(C)CCCC(C)C)=CC1=O` (stereo unspecified), for which the T/C reads like this: under setting [1], 11 % of control; under setting [2], 36 % of control; under setting [5], 59 % of control; (dose: 400.0 mg/kg/injection, schedule: Q04DX004 (sc), vehicle: saline with Tween-80) 18 % of control; under setting [6], 26 % of control; under setting [3], 12 % of control. The T/C runs as follows: under setting [7], 39 % of control; (dose: 2400.0 mg/kg/injection, schedule: Q04DX004 (sc), vehicle: saline with Tween-80) 55 % of control.

Consider `C[C@@H](CN1CC(=O)NC(=O)C1)N1CC(=O)NC(=O)C1`, for which the T/C was 232 % of control (dose: 100.0 mg/kg/injection, schedule: Q01DX010 (sc), vehicle: saline with Tween-80) and 46 % of control (dose: 200.0 mg/kg/injection, schedule: Q01DX010 (sc), vehicle: saline with Tween-80).

Consider `O=[N+]([O-])c1ccc(-n2[nH]nnc2=S)cc1`, for which the T/C by setting is: (dose: 100.0 mg/kg/injection, schedule: Q04DX004 (sc), vehicle: Klucel (hydroxypropylcellulose) (HPC)) 94 % of control; (dose: 200.0 mg/kg/injection, schedule: Q04DX004 (sc), vehicle: Klucel (hydroxypropylcellulose) (HPC)) 92 % of control; (dose: 400.0 mg/kg/injection, schedule: Q04DX004 (sc), vehicle: Klucel (hydroxypropylcellulose) (HPC)) 96 % of control; (dose: 800.0 mg/kg/injection, schedule: Q04DX004 (sc), vehicle: Klucel (hydroxypropylcellulose) (HPC)) 80 % of control.
